Data from patent US12311014B1, “Composition and use thereof for the treatment of equine gastric ulcer syndrome” (priority 2024, dated 2025).

Experiments:
mammalian cells = conditions: cell culture studies; cited from earlier work
[1] = system: piglets weaned at 28 days (control of E. coli infection); assay: Pig trial 1: weight gain and feed intake of weaned piglets; type: in vivo, pigs
Method: A trial was conducted to determine the potential impact of the compositions of the invention for controlling E. coli infection and improving animal health.
Piglets were weaned at 28 days of age with an average weight of 8.6±0.98 kg. At weaning (i.e. no longer suckling), litters were homogenized to a maximum of 14 pigs and assigned to either a control group (no additional feed component), to a first test group to which the composition of the invention was administered, and to a second test group to which zinc oxide was administered. Pigs were fed starter diets up until day 14 of the trial when the trial completed.
Group weight and feed intake was recorded at day 0, 7 and 14 of the experiment.
The composition of the invention comprised: 10 mg LPO and 8 mg KI and excipients. The composition was formulated as a powder. The composition was administered once daily with feed for 14 days. […] Zinc oxide was administered to the second test group at a concentration of 3000 ppm i.e. 3 g/kg of feed.

[2] = system: pigs at weaning (scour/diarrhea); assay: Pig trial 2: 240 weaned pigs, weight, health and cleanliness scores; type: in vivo
Method: A further study involving 240 pigs was carried out with a higher dose of lactoperoxidase and potassium iodide. The pigs were weighed and allocated to the trail at weaning (approximately 28 days of age).
The groups were homogenized with respect to group total weight and gender profile, and each group was divided into pens, with 5 pigs per pen. […] The pigs were weighed individually at the start of the study on day 7 and on day 14. Pigs were assessed each morning for general health, faeces was examined—to check for scour/diarrhea, and pigs per give a cleanliness score

[3] = Lactoperoxidase ABTS activity (UV-vis); type: biochemical; conditions: 1000 units = amount of enzyme that oxidises 1 mmol of ABTS in 5 minutes at pH 6.0 and 35° C.
Method: Lactoperoxidase was isolated from bovine milk. The lactoperoxidase activity (U/mg) was greater than 1000 units ABTS activity (determined using UV-vis). 1000 units ABTS activity (U): amount of enzyme that oxidises 1 mmol of ABTS in 5 minutes at pH 6.0 and 35° C. ABTS: 2,2′-azinobis-(3-ethyl benzthiazoline-6-sulphonic acid).

In the case of OO [hydrogen peroxide], the cytotoxic concentrations (mammalian cells) is given as 0.05 to 0.58 mmol/L.

For [O]=[Zn] [zinc oxide], the Average body weight ([1]; Day 0 (baseline at weaning)) was 8.5 kg, the Average body weight ([1]; Day 7, Test 1: 10 mg LPO and 8 mg KI daily, Test 2: zinc oxide 3000 ppm in feed) was 10.1 kg and the Average body weight ([1]; Day 14, Test 1: 10 mg LPO and 8 mg KI daily, Test 2: zinc oxide 3000 ppm in feed) was 13.7 kg. The “Average daily gain day 14” value ([1]; piglets weaned at 28 days, Test 1: 10 mg LPO and 8 mg KI powder once daily with feed for 14 days, Test 2: zinc oxide 3000 ppm in feed) was 369 g/day, the “Average daily feed intake day 14” value ([1]; piglets weaned at 28 days, Test 1: 10 mg LPO and 8 mg KI powder once daily, Test 2: zinc oxide 3000 ppm in feed) was 455 g/day and the “pig weight at the end of the 14 days” value ([2]; PC: 3100 ppm ZnO diet, test: 20 mg LPO and 20 mg KI per day, NC diet approximately 0.8 kg less than PC) was “heaviest”. The cleanliness score ([2]; score 1 (clean) to 4 (heavily contaminated with faecal material), 14 day study) was “lowest cleanliness score”.

In the case of Lactoperoxidase, the “lactoperoxidase activity (units ABTS activity)” value [3] is reported as “greater than 1000 U/mg”.
